# Experimental data as given in patent publication US6916921B2, “Steroid compounds, use of these compounds for the preparation of meiosis-regulating medicaments and method for the preparation of these compounds” (Schering AG, priority 2001, dated 2005).
# Columns and labels:
# [1] = tested on: mouse preantral follicles; assay: Mouse follicular culture system: activation of oocyte maturation; assay type: cell-based; details: for Activation [%] GVB / Follicles [n] GV / Follicles [n] GVB: added day 2 and 3, read at day 4
# Method: Testing of Meiosis-Activating Substances in the Mouse Follicular Culture System
# Follicles were obtained from 19-21 day-old immature female mice (C57BI/6J×CBA/J), that were kept under controlled lighting and temperature.
# Collection of Serum and Culture of Follicles
# Animals were anesthetized with ether, and blood was collected by means of eye extraction. After clotting, blood was centrifuged for 15 min at 4000×g, and serum was collected and stored at −20° C. until use. Ovaries were removed and placed in Leibovitz L-15 medium (Gibco Cat. No. 41300) supplemented with 1 mmol glutamine l^−1, 3 mg BSA ml^−1, 5 μg human transferrin ml^−1 (without iron), 5 μg insulin ml^−1 (culture-grade chemicals, Sigma, St. Louis, Mo.) at 37 °C.
# Preantral follicles with a diameter of 170-190 μm were isolated mechanically with two 27-gauge needles attached to 1 ml syringe. They were placed and washed thereafter (3 times) in 4-well culture plates (Nunclon, Denmark) in α-minimum essential medium (α-MEM; Gibco Cat. No. 11900) supplemented with 2 mmol glutamine l^−1, 10 μg transferrin ml^−1 and 10 μg insulin ml and with 3 mg BSA ml^−1.
# Follicles of 170-190 μm with normal morphological appearence, i.e. a central spherical oocyte, high density of granulosa cells, and a theca layer enclosing the entire follicle, were selected and individually cultured in 96-well culture plate (Nunclon, Denmark) inserts with 40 μl α-MEM culture medium supplemented with 50 μl immature mouse serum ml^−1, 5 μg insulin ml^−1, 2 mmol glutamine l^−1, 10 μg human transferrin ml^−1 and 0.2 IU FSH (Gonal F, Serono, Solna, Sweden). Without any oil cover follicles were cultured in a humidified incubator gassed with 5% CO2 in air at 37° C.
# Start of culture was defined as day 0. Culture medium was exchanged every other day. The diameter of the follicles was measured each day using ×100 magnification and a calibrated micrometer. In addition, the survival rate of the follicles was checked by evaluation of degeneration (darkening of the follicle) and bursting (loss of the oocyte). The culture time was 4 days.
# At day 2 and day 3 of culture test compound or vehicle at a volume of 1.72 μl was added to the culture medium. Test compounds were dissolved in ethanol (vehicle).
# (§1) Oocytes arrested in meiosis are characterized by an intact nucleus with a prominent nucleolus, known as germinal vesicle (GV). Upon reinitiation of meiosis the nucleolus and the nuclear envelope disappear and this is characterized by a breakdown of the GV, which then is called germinal vesicle breakdown (GVB).
# At day 4, by the end of the culture period, follicles were checked for resumption of meiosis. The number of follicles having oocytes with germinal vesicle (GV) or germinal vesicle breakdown (GVB) was counted using a stereo microscope or an inverted microscope with differential interference contrast equipment. The percentage of follicles with GVB per total number of follicles was calculated in the test cultures and compared to the vehicle control culture.
# [2] = tested on: cumulus enclosed mouse oocytes; assay: Mouse oocyte assay: activation of meiosis in cumulus enclosed oocytes in Hx-medium; assay type: cell-based; details: CEO in Hx-medium, 22 hours culture
# Method: Testing of Meiosis-Activating Substances in the Mouse Oocyte Assay
# Oocytes were obtained from immature female mice (C57BI/6J×DBA/2J F1-hybrids, Bomholtgaard, Denmark) weighing 13-16 grams, that were kept under controlled lighting and temperature. The mice received an intra-peritoneal injection of 0.2 ml gonadotropins (containing 10 IU PMSG, pregnant mare serum gonadotropin, Sigma Cat. No. G-4877) and 48 hours later the animals were killed by cervical dislocation.
# Collection and Culture of Oocytes
# The ovaries were dissected out and the oocytes were isolated in Hx-medium (see below) under a stereo microscope by manual rupture of the follicles using a pair of 27 gauge needles. Spherical, cumulus enclosed oocytes (CEO) displaying an intact germinal vesicle (GV) were placed in α-minimum essential medium (α-MEM without ribonucleosides, Gibco BRL, Cat. No. 22561) supplemented with 3 mM hypoxanthine (Sigma Cat. No. H-9377), 8 mg/ml Human Serum Albumin (HSA, State Serum Institute, Denmark), 0,23 mM pyruvate (Sigma, Cat. No. S-8636), 2 mM glutamine (Flow Cat. No. 16-801), 100 IU/ml penicillin and 100 μg/ml streptomycin (Flow Cat No. 16-700). This medium was designated Hx-medium.
# The oocytes were rinsed three times in Hx-medium and cultured in 4-well multidishes (Nunclon, Denmark) in which each well contained 0.4 ml of Hx-medium and approx. 25 oocytes. One control (i.e. approx. 25 oocytes cultured in Hx-medium with no addition of test compound) was always run simultaneously with the test cultures, which were made with different concentrations of the compounds to be tested. The cultures were performed at 37° C. and 100% humidity with 5% CO2 in air. The culture time was 22 hours.
# as §1, with “than” for “then”, “(GVB). Some hours later the oocyte complete a reductional division and elicit the first so called polar body (PB).” for “(GVB).”
# By the end of the culture period, the number of oocytes with germinal vesicle (GV) or germinal vesicle breakdown (GVB) and those with polar body (PB) was counted using a stereo microscope or an inverted microscope with differential interference contrast equipment. The percentage of oocytes with GVB per total number of oocytes and the percentage of oocytes with PB per total number of oocytes was calculated in the test cultures and compared to the control culture.
# rat oocytes = details: micromolar concentrations; rat CEO and DO arrested by IBMX; cited from earlier work
compound,measurement,setting,value
"C[C@H](CN1CCCCC1)[C@H]1CC=C2C3=C(CC[C@@]21C)[C@@]1(C)CC[C@H](O)C(C)(C)[C@@H]1CC3 [Example 1, (20S)-20-[(piperidin-1-yl)methyl]-4,4-dimethyl-5α-pregna-8,14-dien-3β-ol]",Activation [%] GVB,[1]; 1 μM,78%
same,Follicles [n] GV,[1]; 1 μM,2 n
same,Follicles [n] GVB,[1]; 1 μM,7 n
same,Activation [%] GVB,[1]; 3 μM,100%
same,Follicles [n] GV,[1]; 3 μM,0 n
same,Follicles [n] GVB,[1]; 3 μM,9 n
same,Activation [%] GVB,[1]; 10 μM,100%
same,Follicles [n] GV,[1]; 10 μM,0 n
same,Follicles [n] GVB,[1]; 10 μM,8 n
same,Activation [%] GVB + PB,"[2]; 0,1 μM",39%
same,Oocytes [n] GV,"[2]; 0,1 μM",14 n
same,Oocytes [n] GVB,"[2]; 0,1 μM",7 n
same,Oocytes [n] PB,"[2]; 0,1 μM",2 n
same,Activation [%] GVB + PB,[2]; 1 μM,75%
same,Oocytes [n] GV,[2]; 1 μM,6 n
same,Oocytes [n] GVB,[2]; 1 μM,12 n
same,Oocytes [n] PB,[2]; 1 μM,6 n
same,Activation [%] GVB + PB,[2]; 10 μM,95%
same,Oocytes [n] GV,[2]; 10 μM,1 n
same,Oocytes [n] GVB,[2]; 10 μM,14 n
same,Oocytes [n] PB,[2]; 10 μM,7 n
"CC(C)=CCC[C@@H](C)[C@H]1CC=C2C3=C(CC[C@@]21C)[C@@]1(C)CC[C@H](O)C(C)(C)[C@@H]1CC3 [FF-MAS, 4,4-dimethyl-5α-cholesta-8,14,24-trien-3β-ol, reference compound]",Activation [%] GVB,[1]; 10 μM,0%
same,Follicles [n] GV,[1]; 10 μM,9 n
same,Follicles [n] GVB,[1]; 10 μM,0 n
same,induction of maturation / activation of meiosis in a follicle culture system,[1]; follicle culture system,not able to induce maturation
same,Activation [%] GVB + PB,[2]; 10 μM,46%
same,Oocytes [n] GV,[2]; 10 μM,13 n
same,Oocytes [n] GVB,[2]; 10 μM,6 n
same,Oocytes [n] PB,[2]; 10 μM,5 n
same,resumption of meiosis,rat oocytes,able to induce resumption of meiosis in a dose-dependent manner
